Experimental data published in patent publication US11771124B2, “Composition comprising mannose oligosaccharide and process for making same and use thereof” (CARGILL, INCORPORATED, priority 2017, dated 2023).
Marks after values point to notes of the source that are not given here.

Tests used:
C2Be1 cell line = assay: Intestinal cell proliferation in vitro (BrdU ELISA); type: cell-based
Procedure: Cells were treated with products under serum-limited conditions for 4-5 days. BrdU ELISA is used to measure the amount of proliferation, where it measures the amount of BrdU incorporated into proliferating cells (the more proliferation, the more BrdU that will be detected in the DNA of the cells). Levels of proliferation are expressed as a ratio calculated by dividing the BrdU incorporation of test wells by that of the controls that has medium only. […] The assay is repeated in triplicate on two separate occasions. […]

[1] = Trial 3: broiler performance with or without chlortetracycline; type: in vivo, broiler chickens; conditions: Composition A dose 0.02%

Molecule | % compared to media only (control), Mean (C2Be1 cell line; EGF concentration 10) | Proliferation Ratio (relative to control = 1), Mean (C2Be1 cell line; EGF concentration 10) | % compared to media only (control), Mean (C2Be1 cell line; EGF concentration 100) | Proliferation Ratio (relative to control = 1), Mean (C2Be1 cell line; EGF concentration 100) | BW35 ([1]; broiler chickens up to 35 days of age) | ADFI 0-35 ([1]; broiler chickens) | ADG 0-35 ([1]; broiler chickens) | BW0 ([1]; broiler chickens) | F:G 0-35 ([1]; broiler chickens)
EGF: epithelial growth factor, positive control known to affect cell proliferation | 113.5% | 1.13 | 119.6% | 1.20 |  |  |  |  | 
CN(C)[C@@H]1C(O)=C(C(N)=O)C(=O)[C@@]2(O)C(O)=C3C(=O)c4c(O)ccc(Cl)c4[C@@](C)(O)[C@H]3C[C@@H]12 [CTC, chlortetracycline] |  |  |  |  | 1978.6^b g | 90.8c g | 55.4^b g | 40.2^ns g | 1.64^b
